Experimental data published in publication PMC3415323 (International Journal of Nanomedicine, 2012).

Molecular target: p-gp (Homo sapiens, UniProt P08183)
Test: Effect of p-gp inhibitors on cellular transport of HSYA solution
Type: in vitro ADME
Conditions: Figure 5A

p-gp, sequence (P08183 whole entry): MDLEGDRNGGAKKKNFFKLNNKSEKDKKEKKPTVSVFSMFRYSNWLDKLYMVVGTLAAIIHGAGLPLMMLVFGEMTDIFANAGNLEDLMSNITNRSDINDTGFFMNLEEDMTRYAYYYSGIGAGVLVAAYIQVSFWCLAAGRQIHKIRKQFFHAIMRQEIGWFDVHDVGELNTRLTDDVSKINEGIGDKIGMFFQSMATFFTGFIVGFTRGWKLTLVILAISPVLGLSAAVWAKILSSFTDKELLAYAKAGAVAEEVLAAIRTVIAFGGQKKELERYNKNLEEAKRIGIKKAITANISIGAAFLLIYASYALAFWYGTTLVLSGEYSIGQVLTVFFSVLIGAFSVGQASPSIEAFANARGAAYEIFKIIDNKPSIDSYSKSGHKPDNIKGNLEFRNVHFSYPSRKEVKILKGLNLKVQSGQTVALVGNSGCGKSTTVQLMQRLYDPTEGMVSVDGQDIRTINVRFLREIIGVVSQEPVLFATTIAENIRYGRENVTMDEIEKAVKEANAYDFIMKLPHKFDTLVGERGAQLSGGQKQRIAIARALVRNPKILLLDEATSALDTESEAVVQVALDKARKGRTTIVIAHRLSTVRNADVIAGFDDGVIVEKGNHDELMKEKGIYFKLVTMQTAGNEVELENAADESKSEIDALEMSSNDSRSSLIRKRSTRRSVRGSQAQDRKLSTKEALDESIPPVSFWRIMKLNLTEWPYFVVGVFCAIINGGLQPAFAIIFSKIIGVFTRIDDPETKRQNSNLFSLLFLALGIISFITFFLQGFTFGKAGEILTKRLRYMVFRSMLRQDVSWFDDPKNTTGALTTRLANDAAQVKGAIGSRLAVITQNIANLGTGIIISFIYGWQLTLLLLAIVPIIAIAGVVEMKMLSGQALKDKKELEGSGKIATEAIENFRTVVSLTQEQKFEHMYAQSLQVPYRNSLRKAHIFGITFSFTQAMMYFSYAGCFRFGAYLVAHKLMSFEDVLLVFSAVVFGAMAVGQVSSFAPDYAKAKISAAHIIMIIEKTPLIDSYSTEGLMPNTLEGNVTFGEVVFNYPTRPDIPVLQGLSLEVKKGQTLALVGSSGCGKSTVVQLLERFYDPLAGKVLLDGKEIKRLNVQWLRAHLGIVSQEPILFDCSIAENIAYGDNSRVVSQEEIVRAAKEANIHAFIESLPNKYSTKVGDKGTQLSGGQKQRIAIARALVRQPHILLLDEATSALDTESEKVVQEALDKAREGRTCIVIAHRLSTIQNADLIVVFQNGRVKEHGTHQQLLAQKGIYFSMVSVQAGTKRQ

## Cc1nc(C)c(C)nc1C [TMP, tetramethylpyrazine]
  effect on the absorption of HSYA on Caco-2 cells: significantly increased
